# Results taken from ChEMBL document CHEMBL3885881, “DrugMatrix”.
# Species: Rattus norvegicus
# Test: DrugMatrix - Regimen: Daily Repeat
# Assay type: toxicity, organism-based, Sprague-Dawley
# Set-up: regimen Daily Repeat, gender Male, age 6-8 weeks
# Settings: in vivo, po, route oral GAVAGE, vehicle 100 % WATER; for ABSOLUTE BASOPHIL / ABSOLUTE EOSINOPHIL / ABSOLUTE LYMPHOCYTE / ABSOLUTE MONOCYTE / ABSOLUTE SEGMENTED NEUTROPHIL / BASOPHIL / EOSINOPHIL / ERYTHROCYTE COUNT / HEMATOCRIT / HEMOGLOBIN / LEUKOCYTE COUNT / LYMPHOCYTE / MEAN CORPUSCULAR HEMOGLOBIN / MEAN CORPUSCULAR HEMOGLOBIN CONCENTRATION / MONOCYTE / NEUTROPHIL / NUCLEATED RED BLOOD CELLS / PLATELET COUNT: tissue Blood; for ALANINE AMINOTRANSFERASE / ALBUMIN / ALKALINE PHOSPHATASE / ASPARTATE AMINOTRANSFERASE / BLOOD UREA NITROGEN / CARBON DIOXIDE / CHLORIDE / CHOLESTEROL / CREATINE PHOSPHOKINASE / CREATININE / GLUCOSE / LACTATE DEHYDROGENASE / LIPASE / PHOSPHORUS / POTASSIUM / SODIUM / TOTAL BILIRUBIN / TOTAL PROTEIN / URIC ACID: tissue Plasma
# [1] = 0 mg/kg, 72 h, dose level Control, time 3 day
# [2] = 0 mg/kg, 120 h, dose level Control, time 5 day
# [3] = 50 mg/kg, 72 h, dose level Low, time 3 day
smiles,measurement,setting,value
C[C@H](CS)C(=O)N1CCC[C@H]1C(=O)O [CAPTOPRIL],ABSOLUTE BASOPHIL,[1],0 CELLS/uL
same,ABSOLUTE EOSINOPHIL,[1],0 CELLS/uL
same,ABSOLUTE LYMPHOCYTE,[1],10386.33 CELLS/uL
same,ABSOLUTE MONOCYTE,[1],88.5 CELLS/uL
same,ABSOLUTE SEGMENTED NEUTROPHIL,[1],1008.5 CELLS/uL
same,BASOPHIL,[1],0%
same,EOSINOPHIL,[1],0%
same,ERYTHROCYTE COUNT,[1],5.16 x10E6/uL
same,HEMATOCRIT,[1],32.43%
same,HEMOGLOBIN,[1],12.98 G/DL
same,LEUKOCYTE COUNT,[1],11.48 x10E3/uL
same,LYMPHOCYTE,[1],92.33%
same,MEAN CORPUSCULAR HEMOGLOBIN,[1],25.23 pg
same,MEAN CORPUSCULAR HEMOGLOBIN CONCENTRATION,[1],40.08 G/DL
same,MONOCYTE,[1],0.67%
same,NEUTROPHIL,[1],7%
same,NUCLEATED RED BLOOD CELLS,[1],0 /100WBC
same,PLATELET COUNT,[1],1016.67 x10E3/uL
same,ALANINE AMINOTRANSFERASE,[1],62.17 u/L
same,ALBUMIN,[1],3.95 G/DL
same,ALKALINE PHOSPHATASE,[1],363.5 u/L
same,ASPARTATE AMINOTRANSFERASE,[1],118 u/L
same,BLOOD UREA NITROGEN,[1],14.5 mg/dL
same,CARBON DIOXIDE,[1],22.83 mmol/L
same,CHLORIDE,[1],100.67 MEQ/L
same,CHOLESTEROL,[1],66 mg/dL
same,CREATINE PHOSPHOKINASE,[1],1308.83 u/L
same,CREATININE,[1],0.22 mg/dL
same,GLUCOSE,[1],187.5 mg/dL
same,LACTATE DEHYDROGENASE,[1],380.17 u/L
same,LIPASE,[1],16.17 u/L
same,PHOSPHORUS,[1],14.27 mg/dL
same,POTASSIUM,[1],6.8 MEQ/L
same,SODIUM,[1],142.53 MEQ/L
same,TOTAL BILIRUBIN,[1],0.2 mg/dL
same,TOTAL PROTEIN,[1],5.68 G/DL
same,URIC ACID,[1],2.87 mg/dL
same,ABSOLUTE BASOPHIL,[2],0 CELLS/uL
same,ABSOLUTE EOSINOPHIL,[2],80 CELLS/uL
same,ABSOLUTE LYMPHOCYTE,[2],13301.33 CELLS/uL
same,ABSOLUTE MONOCYTE,[2],180.83 CELLS/uL
same,ABSOLUTE SEGMENTED NEUTROPHIL,[2],1187.83 CELLS/uL
same,BASOPHIL,[2],0%
same,EOSINOPHIL,[2],0.5%
same,ERYTHROCYTE COUNT,[2],5.54 x10E6/uL
same,HEMATOCRIT,[2],35.65%
same,HEMOGLOBIN,[2],14.22 G/DL
same,LEUKOCYTE COUNT,[2],14.75 x10E3/uL
same,LYMPHOCYTE,[2],90.67%
same,MEAN CORPUSCULAR HEMOGLOBIN,[2],25.65 pg
same,MEAN CORPUSCULAR HEMOGLOBIN CONCENTRATION,[2],39.88 G/DL
same,MONOCYTE,[2],1%
same,NEUTROPHIL,[2],7.83%
same,NUCLEATED RED BLOOD CELLS,[2],0.17 /100WBC
same,PLATELET COUNT,[2],1285.33 x10E3/uL
same,ALANINE AMINOTRANSFERASE,[2],51.67 u/L
same,ALBUMIN,[2],4.08 G/DL
same,ALKALINE PHOSPHATASE,[2],391.5 u/L
same,ASPARTATE AMINOTRANSFERASE,[2],99.5 u/L
same,BLOOD UREA NITROGEN,[2],15.5 mg/dL
same,CARBON DIOXIDE,[2],28.33 mmol/L
same,CHLORIDE,[2],101.83 MEQ/L
same,CHOLESTEROL,[2],67.83 mg/dL
same,CREATINE PHOSPHOKINASE,[2],771.33 u/L
same,CREATININE,[2],0.23 mg/dL
same,GLUCOSE,[2],156.5 mg/dL
same,LACTATE DEHYDROGENASE,[2],544.33 u/L
same,LIPASE,[2],10.17 u/L
same,PHOSPHORUS,[2],12.03 mg/dL
same,POTASSIUM,[2],6.81 MEQ/L
same,SODIUM,[2],144.13 MEQ/L
same,TOTAL BILIRUBIN,[2],0.22 mg/dL
same,TOTAL PROTEIN,[2],6 G/DL
same,URIC ACID,[2],2.18 mg/dL
same,ABSOLUTE BASOPHIL,[3],0 CELLS/uL
same,ABSOLUTE EOSINOPHIL,[3],0 CELLS/uL
same,ABSOLUTE LYMPHOCYTE,[3],12527.33 CELLS/uL
same,ABSOLUTE MONOCYTE,[3],193.67 CELLS/uL
same,ABSOLUTE SEGMENTED NEUTROPHIL,[3],645.67 CELLS/uL
same,BASOPHIL,[3],0%
same,EOSINOPHIL,[3],0%
same,ERYTHROCYTE COUNT,[3],5.11 x10E6/uL
same,HEMATOCRIT,[3],32.47%
same,HEMOGLOBIN,[3],12.77 G/DL
same,LEUKOCYTE COUNT,[3],13.37 x10E3/uL
same,LYMPHOCYTE,[3],93.67%
same,MEAN CORPUSCULAR HEMOGLOBIN,[3],25 pg
same,MEAN CORPUSCULAR HEMOGLOBIN CONCENTRATION,[3],39.33 G/DL
same,MONOCYTE,[3],1.33%
same,NEUTROPHIL,[3],5%
same,NUCLEATED RED BLOOD CELLS,[3],0 /100WBC
same,PLATELET COUNT,[3],1185.33 x10E3/uL
same,ALANINE AMINOTRANSFERASE,[3],55.33 u/L
same,ALBUMIN,[3],4.23 G/DL
same,ALKALINE PHOSPHATASE,[3],396.33 u/L
same,ASPARTATE AMINOTRANSFERASE,[3],89.33 u/L
same,BLOOD UREA NITROGEN,[3],15.33 mg/dL
same,CARBON DIOXIDE,[3],24.67 mmol/L
same,CHLORIDE,[3],99.67 MEQ/L
same,CHOLESTEROL,[3],77.67 mg/dL
same,CREATINE PHOSPHOKINASE,[3],344.67 u/L
same,CREATININE,[3],0.22 mg/dL
same,GLUCOSE,[3],154.67 mg/dL
same,LACTATE DEHYDROGENASE,[3],230.67 u/L
same,LIPASE,[3],11.67 u/L
same,PHOSPHORUS,[3],12.57 mg/dL
same,POTASSIUM,[3],6.98 MEQ/L
same,SODIUM,[3],141.83 MEQ/L
same,TOTAL BILIRUBIN,[3],0.2 mg/dL
same,TOTAL PROTEIN,[3],5.87 G/DL
